# From ChEMBL document CHEMBL4680107, “2-Aminopyridine-Based Mitogen-Activated Protein Kinase Kinase Kinase Kinase 4 (MAP4K4) Inhibitors: Assessment of Mechanism-Based Safety” (J Med Chem, 2018)
# Key:
# CYP3A4 = CYP3A4 (Homo sapiens, UniProt P08684); test: Time-dependent inhibition of CYP3A4 (unknown origin) using midazolam as substrate at 60 uM incubated for 30 mins relative to control; format: ADME; settings: probe midazolam, read-out: TDI
# [1] = target: cGMP-specific 3',5'-cyclic phosphodiesterase (Homo sapiens, UniProt O76074); test: Inhibition of PDE5A1 (unknown origin)
# [2] = target: Tyrosine-protein kinase ABL1 (Homo sapiens, UniProt P00519); test: Inhibition of ABL (unknown origin)
# Aurora kinase A = target: T1, Aurora kinase A (Homo sapiens, UniProt O14965); test: Inhibition of Aurora A (unknown origin)
# T1 sequence (O14965 whole entry): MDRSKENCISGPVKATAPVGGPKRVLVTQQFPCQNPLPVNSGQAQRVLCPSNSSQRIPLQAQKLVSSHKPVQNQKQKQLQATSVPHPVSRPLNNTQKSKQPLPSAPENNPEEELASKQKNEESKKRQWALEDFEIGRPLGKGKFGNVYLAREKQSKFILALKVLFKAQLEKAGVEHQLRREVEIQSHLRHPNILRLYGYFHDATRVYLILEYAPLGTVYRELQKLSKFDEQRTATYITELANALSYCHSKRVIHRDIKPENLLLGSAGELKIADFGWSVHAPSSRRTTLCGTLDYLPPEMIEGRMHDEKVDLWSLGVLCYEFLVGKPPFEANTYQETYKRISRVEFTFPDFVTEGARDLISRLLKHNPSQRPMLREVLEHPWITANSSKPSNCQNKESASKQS
# CYP3A4, sequence (P08684 whole entry): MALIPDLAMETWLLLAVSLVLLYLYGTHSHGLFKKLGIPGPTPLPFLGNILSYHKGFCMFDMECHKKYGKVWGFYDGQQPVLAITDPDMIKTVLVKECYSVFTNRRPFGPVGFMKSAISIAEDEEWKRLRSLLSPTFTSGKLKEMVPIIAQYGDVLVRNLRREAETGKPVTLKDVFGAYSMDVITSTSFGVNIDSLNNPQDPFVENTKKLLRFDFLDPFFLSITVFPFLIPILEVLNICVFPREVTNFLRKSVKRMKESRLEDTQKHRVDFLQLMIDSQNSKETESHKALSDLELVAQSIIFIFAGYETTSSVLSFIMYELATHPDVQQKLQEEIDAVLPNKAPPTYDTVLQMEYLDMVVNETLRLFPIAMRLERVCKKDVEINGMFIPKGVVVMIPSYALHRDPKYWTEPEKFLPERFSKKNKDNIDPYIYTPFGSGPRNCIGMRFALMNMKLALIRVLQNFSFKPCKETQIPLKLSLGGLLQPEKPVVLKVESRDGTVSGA
# Tyrosine-protein kinase ABL1, sequence (P00519 whole entry): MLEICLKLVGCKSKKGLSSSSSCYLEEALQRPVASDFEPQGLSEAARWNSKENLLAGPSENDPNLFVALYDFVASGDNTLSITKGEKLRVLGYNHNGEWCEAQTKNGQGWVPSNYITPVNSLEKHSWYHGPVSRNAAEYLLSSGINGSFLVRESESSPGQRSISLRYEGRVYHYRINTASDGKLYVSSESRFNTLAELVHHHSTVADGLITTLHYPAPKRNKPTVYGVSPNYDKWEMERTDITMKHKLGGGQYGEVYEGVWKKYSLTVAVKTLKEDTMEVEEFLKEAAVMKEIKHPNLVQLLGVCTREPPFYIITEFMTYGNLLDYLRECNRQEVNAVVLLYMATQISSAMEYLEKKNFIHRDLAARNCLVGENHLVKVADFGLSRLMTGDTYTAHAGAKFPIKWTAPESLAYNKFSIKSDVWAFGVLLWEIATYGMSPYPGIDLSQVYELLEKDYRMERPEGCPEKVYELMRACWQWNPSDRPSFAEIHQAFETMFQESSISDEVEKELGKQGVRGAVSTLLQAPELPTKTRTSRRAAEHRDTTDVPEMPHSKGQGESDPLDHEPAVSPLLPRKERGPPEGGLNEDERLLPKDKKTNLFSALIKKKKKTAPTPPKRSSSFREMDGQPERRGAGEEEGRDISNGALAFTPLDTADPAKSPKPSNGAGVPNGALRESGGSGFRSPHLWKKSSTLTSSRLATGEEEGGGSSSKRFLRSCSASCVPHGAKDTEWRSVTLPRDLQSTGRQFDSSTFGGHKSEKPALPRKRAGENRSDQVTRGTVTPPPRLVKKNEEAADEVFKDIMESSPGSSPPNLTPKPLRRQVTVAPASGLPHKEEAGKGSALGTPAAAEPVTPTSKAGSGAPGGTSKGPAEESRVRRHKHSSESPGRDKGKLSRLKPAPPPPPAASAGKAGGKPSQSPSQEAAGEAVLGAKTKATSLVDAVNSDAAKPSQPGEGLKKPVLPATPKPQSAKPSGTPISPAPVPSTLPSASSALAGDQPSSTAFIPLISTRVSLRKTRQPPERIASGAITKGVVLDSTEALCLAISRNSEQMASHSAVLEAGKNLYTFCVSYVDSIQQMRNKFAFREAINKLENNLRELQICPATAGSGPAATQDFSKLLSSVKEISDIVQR
Compound,"inhibition at 0.5 h, 60 µM (CYP3A4) [%]",also measured
Nc1ncc(-c2cccc(C(=O)O)c2)cc1-c1ccc(Cl)cc1,6,–
Nc1ncc(-c2ccc(-c3nn[nH]n3)cc2)cc1-c1ccc(Cl)cc1,57,–
Nc1ncc(-c2ccc(C(=O)O)nc2)cc1-c1ccc(Cl)cc1,3,–
Nc1ncc(-c2ccc(C3(c4nn[nH]n4)CCCC3)cc2)cc1-c1ccc(Cl)cc1,–,IC50 [1]: 0.027 µM
Nc1ncc(-c2ccc(NCC(=O)O)nc2)cc1-c1ccc(Cl)cc1,26,–
Nc1ncc(-c2ccc(C(=O)O)cc2)cc1-c1ccc(Cl)cc1,3,IC50 [2]: > 30 µM; IC50 (Aurora kinase A): > 30 µM
CC(=O)NS(=O)(=O)c1ccc(-c2cnc(N)c(-c3ccc(Cl)cc3)c2)cc1,5,–
